# Results from patent publication US20250115603A1, “CRYSTALLINE FORMS OF A KRAS INHIBITOR” (Incyte Corporation, priority 2023, published 2025).
# Counter-ions that a name gives are not always drawn. Marks after values point to notes of the source that are not given here.
# How the values were obtained:
# Assay type in all cases: physicochemical
# [1] = Solubility measurement at 25° C. (HPLC of saturated solution); settings: for solubility: 25 °C, organic solvent or mixture; for Solubility (25° C.): monohydrochloride dihydrate
# Experimental: (§1) The solubility of the Compound 1 HCl sample (prepared according to Example 4) was measured according to the procedure for solubility at 25° C. in Table 8 and the procedure for solubility at 50° C. in Table 9.
# [2] = Solubility measurement at 50° C. (HPLC of saturated solution); settings: for Solubility (50° C.): monohydrochloride dihydrate; for solubility: 50 °C, organic solvent or mixture
# Experimental: as §1
# [3] = Compound 1 hydrochloride polymorph screening; settings: nine polymorphs (Forms I-IX) identified by standard polymorph screening
# [4] = 2-Methoxyethanol, by visual assessment
# [5] = Dimethylformamide, by visual assessment
# [6] = n-Propanol, by visual assessment
compound,measurement,setting,value
"Cc1nc2c(F)c(-c3cccc(Cl)c3Cl)c(CCC#N)cc2c2c1cc(C1CC3C[C@H]3N1C(=O)C1CC1)n2C1[C@H]2CN[C@@H]1C2 (atropisomer, axis not shown; (Ra)) [Compound 1 HCl, 3-((Ra)-1-((1R,4R,5S)-2-azabicyclo[2.1.1]hexan-5-yl)-2-((1R,3R,5R)-2-(cyclopropanecarbonyl)-2-azabicyclo[3.1.0]hexan-3-yl)-7-(2,3-dichlorophenyl)-6-fluoro-4-methyl-1H-pyrrolo[3,2-c]quinolin-8-yl)propanenitrile monohydrochloride dihydrate]",solubility,[1]; [4],> 50 mg/mL
same,Solubility (25° C.),[1]; [4],>50* mg/mL
same,solubility,"[1]; DMSO, by visual assessment",> 50 mg/mL
same,Solubility (25° C.),"[1]; DMSO, by visual assessment",>50* mg/mL
same,solubility,[1]; [5],> 50 mg/mL
same,Solubility (25° C.),[1]; [5],>50* mg/mL
same,solubility,"[1]; MeOH, by visual assessment",> 50 mg/mL
same,Solubility (25° C.),"[1]; MeOH, by visual assessment",>50* mg/mL
same,solubility,[1]; Methyl iso-butyl ketone,1 to 15 mg/mL
same,Solubility (25° C.),[1]; Methyl iso-butyl ketone,1.3 mg/mL
same,solubility,[1]; Tetrahydrofuran (THF),< 1 mg/mL
same,Solubility (25° C.),[1]; Tetrahydrofuran (THF),0.9 mg/mL
same,solubility,[1]; heptane,0.01 mg/mL
same,solubility,"[1]; n-BuOH, by visual assessment",> 50 mg/mL
same,Solubility (25° C.),"[1]; n-BuOH, by visual assessment",>50* mg/mL
same,Solubility (50° C.),[2]; [4],>50* mg/mL
same,solubility,"[2]; 2-methoxyethanol, by visual assessment",> 50 mg/mL
same,Solubility (50° C.),[2]; 3% MeOH 0.3% water in EtOAc,0.8 mg/mL
same,solubility,"[2]; 3% MeOH, 0.3% water in EtOAc, 3% MeOH 0.3% water in EtOAc",< 1 mg/mL
same,Solubility (50° C.),[2]; Acetone,19.2 mg/mL
same,Solubility (50° C.),[2]; Chloroform,21.2 mg/mL
same,solubility,"[2]; DMSO, by visual assessment",> 50 mg/mL
same,Solubility (50° C.),"[2]; DMSO, by visual assessment",>50* mg/mL
same,Solubility (50° C.),[2]; [5],>50* mg/mL
same,solubility,[2]; EtOH,15 to 50 mg/mL
same,Solubility (50° C.),[2]; EtOH,22.3 mg/mL
same,solubility,[2]; Ethyl formate,< 1 mg/mL
same,Solubility (50° C.),[2]; Ethyl formate,0.6 mg/mL
same,solubility,"[2]; MeOH, by visual assessment",> 50 mg/mL
same,Solubility (50° C.),"[2]; MeOH, by visual assessment",>50* mg/mL
same,solubility,[2]; acetone,15 to 50 mg/mL
same,solubility,[2]; chloroform,15 to 50 mg/mL
same,solubility,"[2]; dimethylformamide, by visual assessment",> 50 mg/mL
same,solubility,[2]; heptane,0.02 mg/mL
same,Solubility (50° C.),"[2]; iso-Propanol (IPA), by visual assessment",>50* mg/mL
same,solubility,"[2]; iso-propanol (IPA), by visual assessment",> 50 mg/mL
same,solubility,"[2]; n-BuOH, by visual assessment",> 50 mg/mL
same,Solubility (50° C.),"[2]; n-BuOH, by visual assessment",>50* mg/mL
same,solubility,[2]; [6],> 50 mg/mL
same,Solubility (50° C.),[2]; [6],>50* mg/mL
same,Relative stability of crystalline forms of Compound 1 HCl,[3],most stable form
